# Test results reported in US6800674B2, “Anthraquinone compound and water-based ink-jet recording ink containing the compound” (Mitsui Chemicals, Inc., priority 2000, dated 2004).
# How the values were obtained:
# Format in all cases: physicochemical
# [1] = Evaluation of light fastness (xenon fadeometer, OD2); conditions: aqueous ink, ink production process Example 1; OD2 after 100 hours of irradiation
# Experimental: (§1) Glycerin and water were added to the dispersion (A) of colored resin fine particles to obtain aqueous ink having a solid content of 15% by weight. This aqueous ink was used, and filled in an ink cartridge for a piezo-type ink jet printer, and printing and image recording were conducted with the same printer. The test was conducted on the following items.
# (E) Evaluation of Light Fastness
# Printing density (OD value) was measured using a xenon fadeometer (manufactured by Suga Shikenki) before irradiation and after 100 hours of irradiation. Light fastness was evaluated upon comparing OD2.
# OD2=(OD value after irradiation)/(OD value before irradiation)×100[%]
# [2] = Evaluation of water resistance (OD1 after/before dipping in water); conditions: aqueous ink, OD1 after dipping in water and air-drying
# Experimental: as §1
# (D) Evaluation of Water Resistance
# With respect to a printed portion of a plain paper having a recorded image thereon for test, printing density (OD value) was measured with a reflection densitometer before dipping in water and after dipping in water and air-drying. Water resistance was evaluated upon comparing OD1.
# OD1=(OD value after dipping in water and air-drying)/(OD value before dipping in water)×100[%]
# [3] = Evaluation of light fastness (xenon fadeometer, OD2); conditions: aqueous ink, ink production process Example 2; OD2 after 100 hours of irradiation
# [4] = ink production process Example 1
# [5] = ink production process Example 2
SMILES,E (Evaluation of light fastness) [1],"D (Evaluation of water resistance) [2, 4]","D (Evaluation of water resistance) [2, 5]",E (Evaluation of light fastness) [3]
CCCCCCCCN(CCCCCCCC)c1cccc(Oc2cc(O)c3c(c2N)C(=O)c2ccccc2C3=O)c1 [Coloring matter No. 1],⊚⊚ (OD value is 90 to 100%.),⊚⊚ (OD value is 90 to 100%.),,
Nc1ccccc1Oc1cc(O)c2c(c1N)C(=O)c1ccccc1C2=O [compound 4],◯ (OD value is 70 to less than 80%.),⊚ (OD value is 80 to less than 90%.),⊚ (OD value is 80 to less than 90%.),◯ (OD value is 70 to less than 80%.)
CN(C)c1cccc(Oc2cc(O)c3c(c2N)C(=O)c2ccccc2C3=O)c1 [compound 5],⊚ (OD value is 80 to less than 90%.),⊚⊚ (OD value is 90 to 100%.),⊚⊚ (OD value is 90 to 100%.),⊚ (OD value is 80 to less than 90%.)
CCNc1cccc(Oc2cc(O)c3c(c2N)C(=O)c2ccccc2C3=O)c1 [compound 6],⊚ (OD value is 80 to less than 90%.),⊚⊚ (OD value is 90 to 100%.),⊚⊚ (OD value is 90 to 100%.),◯ (OD value is 70 to less than 80%.)
CCN(CC)c1cccc(Oc2cc(O)c3c(c2N)C(=O)c2ccccc2C3=O)c1 [compound 7],⊚ (OD value is 80 to less than 90%.),⊚⊚ (OD value is 90 to 100%.),⊚⊚ (OD value is 90 to 100%.),⊚ (OD value is 80 to less than 90%.)
CCCN(CCC)c1cccc(Oc2cc(O)c3c(c2N)C(=O)c2ccccc2C3=O)c1 [compound 8],⊚⊚ (OD value is 90 to 100%.),⊚⊚ (OD value is 90 to 100%.),⊚⊚ (OD value is 90 to 100%.),⊚⊚ (OD value is 90 to 100%.)
CCCCCCN(CCCCCC)c1cccc(Oc2cc(O)c3c(c2N)C(=O)c2ccccc2C3=O)c1 [compound 10],⊚⊚ (OD value is 90 to 100%.),⊚⊚ (OD value is 90 to 100%.),⊚⊚ (OD value is 90 to 100%.),⊚⊚ (OD value is 90 to 100%.)
CCCC(C)N(c1cccc(Oc2cc(O)c3c(c2N)C(=O)c2ccccc2C3=O)c1)C(C)CCC (stereo not drawn) [compound 11],⊚⊚ (OD value is 90 to 100%.),⊚⊚ (OD value is 90 to 100%.),⊚⊚ (OD value is 90 to 100%.),⊚⊚ (OD value is 90 to 100%.)
Nc1c(Oc2ccc(C(c3ccccc3)c3ccccc3)cc2)cc(O)c2c1C(=O)c1ccccc1C2=O [compound 12],◯ (OD value is 70 to less than 80%.),⊚ (OD value is 80 to less than 90%.),⊚ (OD value is 80 to less than 90%.),◯ (OD value is 70 to less than 80%.)
CCN(CC)c1cccc(Oc2cc(O)c3c(c2N)C(=O)c2cc(C)ccc2C3=O)c1 [compound 13],⊚⊚ (OD value is 90 to 100%.),⊚⊚ (OD value is 90 to 100%.),⊚⊚ (OD value is 90 to 100%.),⊚⊚ (OD value is 90 to 100%.)
CCCCN(CCCC)c1cccc(Oc2cc(O)c3c(c2N)C(=O)c2ccc(CC)cc2C3=O)c1 [compound 14],⊚⊚ (OD value is 90 to 100%.),⊚⊚ (OD value is 90 to 100%.),⊚⊚ (OD value is 90 to 100%.),⊚⊚ (OD value is 90 to 100%.)
CCc1ccc2c(c1)C(=O)c1c(O)cc(Oc3cccc(N(CC)CC)c3)c(N)c1C2=O [compound 15],⊚ (OD value is 80 to less than 90%.),⊚⊚ (OD value is 90 to 100%.),⊚⊚ (OD value is 90 to 100%.),⊚ (OD value is 80 to less than 90%.)
CCCCC(CC)CC(=O)Nc1ccc(O)cc1Sc1cc(O)c2c(c1N)C(=O)c1ccccc1C2=O (stereo not drawn) [compound 19],Δ (OD value is 50 to less than 70%.),◯ (OD value is 70 to less than 80%.),,
CCCCCCCCOC(=O)CSc1cc(O)c2c(c1N)C(=O)c1ccccc1C2=O [compound 20],Δ (OD value is 50 to less than 70%.),◯ (OD value is 70 to less than 80%.),,
CCCCCCCCSc1cc(O)c2c(c1N)C(=O)c1ccccc1C2=O [compound 21],Δ (OD value is 50 to less than 70%.),◯ (OD value is 70 to less than 80%.),,
Nc1ccccc1Sc1cc(O)c2c(c1N)C(=O)c1ccccc1C2=O [compound 22],Δ (OD value is 50 to less than 70%.),◯ (OD value is 70 to less than 80%.),,
Nc1c(Oc2ccccc2)cc(O)c2c1C(=O)c1ccccc1C2=O [compound 23],Δ (OD value is 50 to less than 70%.),◯ (OD value is 70 to less than 80%.),,

SMILES,E (Evaluation of light fastness) [1],"D (Evaluation of water resistance) [2, 4]","D (Evaluation of water resistance) [2, 5]",E (Evaluation of light fastness) [3]
Cc1cccc(Oc2cc(O)c3c(c2N)C(=O)c2ccccc2C3=O)c1 [compound 24],◯ (OD value is 70 to less than 80%.),◯ (OD value is 70 to less than 80%.),,
Cc1ccc(CCCOc2cc(O)c3c(c2N)C(=O)c2ccccc2C3=O)cc1 [compound 25],◯ (OD value is 70 to less than 80%.),◯ (OD value is 70 to less than 80%.),,
CCCCC(CC)COC(=O)CSc1cccc(Oc2cc(O)c3c(c2N)C(=O)c2ccccc2C3=O)c1 (stereo not drawn) [compound 26],◯ (OD value is 70 to less than 80%.),◯ (OD value is 70 to less than 80%.),,
CCCCCCCCCCCCCCCCCCOC(=O)CSc1cc(O)c2c(c1N)C(=O)c1ccccc1C2=O [compound 27],Δ (OD value is 50 to less than 70%.),◯ (OD value is 70 to less than 80%.),,
CCCCC(CC)COC(=O)CSc1ccccc1Oc1cc(O)c2c(c1N)C(=O)c1ccccc1C2=O (stereo not drawn) [compound 28],◯ (OD value is 70 to less than 80%.),◯ (OD value is 70 to less than 80%.),,
CCCCC(CC)COC(=O)CCSc1cc(O)c2c(c1N)C(=O)c1ccccc1C2=O (stereo not drawn) [compound 29],Δ (OD value is 50 to less than 70%.),◯ (OD value is 70 to less than 80%.),,
CCCCC(CC)COC(=O)CSc1cc(O)c2c(c1N)C(=O)c1ccccc1C2=O (stereo not drawn) [compound 30],Δ (OD value is 50 to less than 70%.),◯ (OD value is 70 to less than 80%.),,
Nc1c(SCCOCCSc2cc(O)c3c(c2N)C(=O)c2ccccc2C3=O)cc(O)c2c1C(=O)c1ccccc1C2=O [compound 31],Δ (OD value is 50 to less than 70%.),◯ (OD value is 70 to less than 80%.),,
CCCCOC(=O)CSc1cc(O)c2c(c1N)C(=O)c1ccccc1C2=O [compound 32],Δ (OD value is 50 to less than 70%.),◯ (OD value is 70 to less than 80%.),,
CCCCC(CC)C(=O)Nc1ccccc1Oc1cc(O)c2c(c1N)C(=O)c1ccccc1C2=O (stereo not drawn) [compound 33],◯ (OD value is 70 to less than 80%.),◯ (OD value is 70 to less than 80%.),,
CCCCC(CC)C(=O)Nc1cccc(Oc2cc(O)c3c(c2N)C(=O)c2ccccc2C3=O)c1 (stereo not drawn) [compound 34],◯ (OD value is 70 to less than 80%.),◯ (OD value is 70 to less than 80%.),,
Nc1c(Oc2ccccc2NC(=O)c2ccccc2)cc(O)c2c1C(=O)c1ccccc1C2=O [compound 35],◯ (OD value is 70 to less than 80%.),◯ (OD value is 70 to less than 80%.),,
CCCCN(CCCC)c1cccc(CCOc2cc(O)c3c(c2N)C(=O)c2ccccc2C3=O)c1 [compound 36],◯ (OD value is 70 to less than 80%.),◯ (OD value is 70 to less than 80%.),,
Nc1c(Oc2cccc(C(F)(F)F)c2)cc(O)c2c1C(=O)c1ccccc1C2=O [compound 37],◯ (OD value is 70 to less than 80%.),◯ (OD value is 70 to less than 80%.),,
CCCCCCCCCc1ccc(Oc2cc(O)c3c(c2N)C(=O)c2ccccc2C3=O)cc1 [compound 38],◯ (OD value is 70 to less than 80%.),◯ (OD value is 70 to less than 80%.),,
CCCCC(CC)C(=O)Oc1ccc(Oc2cc(O)c3c(c2N)C(=O)c2ccccc2C3=O)cc1 (stereo not drawn) [compound 39],◯ (OD value is 70 to less than 80%.),◯ (OD value is 70 to less than 80%.),,
CCCCC(CC)COC(=O)CSc1ccc(Oc2cc(O)c3c(c2N)C(=O)c2ccccc2C3=O)cc1 (stereo not drawn) [compound 40],◯ (OD value is 70 to less than 80%.),◯ (OD value is 70 to less than 80%.),,
